Test results from publication PMC6199744, “Development of Chemical Proteomics for the Folateome and Analysis of the Kinetoplastid Folateome” (ACS Infectious Diseases, 2018).
Read-outs that look alike come from different tables or passages of the source.

Tested on: T. brucei lysate proteins
Format: binding, Trypanosoma brucei

For CCCCCCOc1ccc(Cc2cnc(N)nc2N)cc1 [compound 1], the fold change (relative to vehicle control = 1, protein TB09.160.3270 ATP-DEPENDENT DEAD BOX HELICASE, PUTATIVE) was 0.99, the fold change (relative to vehicle control = 1, protein TB09.160.4250 TR[…]) was 0.87 and the fold change (relative to vehicle control = 1, protein TB09.211.3540 GLYCEROL KINASE, GLYCOSOMAL) was 0.92. For the same compound, the fold change (relative to vehicle control = 1, protein TB11.01.0450 PROTEIN PHOSPHATASE 1, PUTATIVE) was 0.96, the fold change (relative to vehicle control = 1, protein TB11.01.1270 NUCLEIC ACID BINDING PROTEIN, PUTATIVE) was 0.97 and the fold change (relative to vehicle control = 1, protein TB11.01.1290 14-3-3-I PROTEIN) was 0.77. The fold change (relative to vehicle control = 1, protein TB11.02.1135 DYNEIN LIGHT CHAIN, PUTATIVE) was 0.88, the fold change (relative to vehicle control = 1, protein TB11.02.4700 14-3-3 PROTEIN) was 0.96 and the fold change (relative to vehicle control = 1, protein TB11.03.0815 DYNEIN LIGHT CHAIN) was 0.76. The fold change (relative to vehicle control = 1, protein TB11.50.0007 DYNEIN LIGHT CHAIN LC8, PUTATIVE) was 0.99, the fold change (relative to vehicle control = 1, protein TB427TMP.01.1400 GLYCYL-TRNA SYNTHETASE, PUTATIVE) was 0.88 and the fold change (relative to vehicle control = 1, protein TB427TMP.01.1830 HY[…], CONSERVED) was 0.86. It also gave a fold change (relative to vehicle control = 1, protein TB427TMP.01.3370 […] PROTEIN, PUTATIVE) of 0.94, a fold change (relative to vehicle control = 1, protein TB427TMP.01.6880 CYTOSOLIC COAT PROTEIN, PUTATIVE) of 0.88 and a fold change (relative to vehicle control = 1, protein TB427TMP.01.7490 HY[…], CONSERVED) of 0.95. It also gave a fold change (relative to vehicle control = 1, protein TB427TMP.01.7530 HY[…], CONSERVED) of 0.92, a fold change (relative to vehicle control = 1, protein TB427TMP.02.0750 T-COMPLEX PROTEIN 1, ZETA SUBUNIT, PUTATIVE) of 0.94 and a fold change (relative to vehicle control = 1, protein TB427TMP.02.1120 ADENYL[…], PUTATIVE) of 0.93. The fold change (relative to vehicle control = 1, protein TB427TMP.02.1460 HY[…], CONSERVED) was 0.82, the fold change (relative to vehicle control = 1, protein TB427TMP.02.3120 MALIC ENZYME, PUTATIVE) was 0.77 and the fold change (relative to vehicle control = 1, protein TB427TMP.02.4550 HY[…], CONSERVED) was 0.91. It also gave a fold change (relative to vehicle control = 1, protein TB427TMP.02.5450 GLUCOSE-REGULATED PROTEIN 78, PUTATIVE) of 0.89, a fold change (relative to vehicle control = 1, protein TB427TMP.02.5660 HY[…], CONSERVED) of 0.82 and a fold change (relative to vehicle control = 1, protein TB427TMP.03.0090 RIBOKINASE, PUTATIVE) of 0.87. For the same compound, the fold change (relative to vehicle control = 1, protein TB427TMP.03.0460 HY[…], CONSERVED) was 0.85, the fold change (relative to vehicle control = 1, protein TB427TMP.160.4770 PROTEIN KINASE, PUTATIVE) was 0.92 and the fold change (relative to vehicle control = 1, protein TB427TMP.160.4910 FLAVOPROTEIN MONOOXYGENASE, PUTATIVE) was 0.89. It also gave a fold change (relative to vehicle control = 1, protein TB427TMP.22.0004 HY[…], CONSERVED) of 0.97, a fold change (relative to vehicle control = 1, protein TB427.01.3830 GLUCOSE-6-PHOSPHATE ISOMERASE, GLYCOSOMAL) of 1 and a fold change (relative to vehicle control = 1, protein TB427.01.4050 PROTEIN P[…] EF-HAND DOMAINS (PPEF)) of 0.94. It also gave a fold change (relative to vehicle control = 1, protein TB427.02.1170 RETRO[…] SPOT (RHS) PROTEIN, PUTATIVE) of 0.85, a fold change (relative to vehicle control = 1, protein TB427.02.6220 ADENOSINE TRANSPORTER 2, PUTATIVE) of 0.95 and a fold change (relative to vehicle control = 1, protein TB427.03.3160 POLY(A) POLYMERASE) of 0.97. For the same compound, the fold change (relative to vehicle control = 1, protein TB427.03.3560 HY[…], CONSERVED) was 0.92, the fold change (relative to vehicle control = 1, protein TB427.03.4190 ENDOSOMAL INTEGRAL MEMBRANE PROTEIN, PUTATIVE) was 0.99 and the fold change (relative to vehicle control = 1, protein TB427.03.5420 PROTEIN TRANSPORT PROTEIN SEC24) was 0.8. For the same compound, the fold change (relative to vehicle control = 1, protein TB427.04.1510 PHOSPHOLIPID-TRA[…], PUTATIVE) was 0.88, the fold change (relative to vehicle control = 1, protein TB427.05.1320 HY[…], CONSERVED) was 0.97 and the fold change (relative to vehicle control = 1, protein TB427.05.300 THYMINE-7-HYDROXYLASE, PUTATIVE) was 0.92. For the same compound, the fold change (relative to vehicle control = 1, protein TB427.05.3800 GLUTAMINE HYDROLYSING (NOT AMMONIA-DEPENDENT) […] PHOSPHATE SYNTHASE, PUTATIVE) was 0.88, the fold change (relative to vehicle control = 1, protein TB427.05.4530 FATTY ACID ELONGASE, PUTATIVE) was 0.75 and the fold change (relative to vehicle control = 1, protein TB427.06.2550 RNA-BINDING PROTEIN, PUTATIVE) was 0.89. It also gave a fold change (relative to vehicle control = 1, protein TB427.06.3650 ADP-RI[…], PUTATIVE) of 0.84, a fold change (relative to vehicle control = 1, protein TB427.06.3860 HY[…], CONSERVED) of 0.55 and a fold change (relative to vehicle control = 1, protein TB427.07.2340 40S RIBOSOMAL PROTEIN S15, PUTATIVE) of 0.82. For the same compound, the fold change (relative to vehicle control = 1, protein TB427.07.2570 MRNA […], PUTATIVE) was 0.69, the fold change (relative to vehicle control = 1, protein TB427.07.7500 THYMINE-7-HYDROXYLASE, PUTATIVE) was 0.94 and the fold change (relative to vehicle control = 1, protein TB427.08.3150 T-COMPLEX PROTEIN 1, GAMMA SUBUNIT, PUTATIVE) was 0.9. For the same compound, the fold change (relative to vehicle control = 1, protein TB427.08.3490 HY[…], CONSERVED) was 0.94, the fold change (relative to vehicle control = 1, protein TB427.08.5460 FLAGELLAR CALCIUM-BINDING PROTEIN) was 0.99 and the fold change (relative to vehicle control = 1, protein TB427.08.6110 HY[…], CONSERVED) was 0.71. The fold change (relative to vehicle control = 1, protein TB427.10.11930 NAD OR NADP DEPENDENT OXIDOREDUCTASE, PUTATIVE) was 0.63, the fold change (relative to vehicle control = 1, protein TB427.10.12510 P-TYPE H+-ATPASE, PUTATIVE) was 0.99 and the fold change (relative to vehicle control = 1, protein TB427.10.13110 DYNEIN LIGHT CHAIN, PUTATIVE) was 0.86. It also gave a fold change (relative to vehicle control = 1, protein TB427.10.13880 HY[…], CONSERVED) of 0.88, a fold change (relative to vehicle control = 1, protein TB427.10.14140 PYRUVATE KINASE 1) of 0.98 and a fold change (relative to vehicle control = 1, protein TB427.10.14910 SA[…] GLYCOPROTEIN, PUTATIVE) of 1. The fold change (relative to vehicle control = 1, protein TB427.10.15180 […] PROTEIN, PUTATIVE) was 0.82, the fold change (relative to vehicle control = 1, protein TB427.10.2350 PYRUVATE DEH[…] E3 BINDING PROTEIN, PUTATIVE) was 0.7 and the fold change (relative to vehicle control = 1, protein TB427.10.4940 NUCLEAR DBF2-RELATED KINASE) was 0.93. It also gave a fold change (relative to vehicle control = 1, protein TB427.10.7630 HY[…], CONSERVED) of 0.98, a fold change (relative to vehicle control = 1, protein TB427.10.9800 60S RIBOSOMAL PROTEIN L22) of 1 and a fold change (relative to vehicle control = 1, protein TB927.10.12840 MIT[…] PROTEIN, PUTATIVE) of 0.8. It also gave a fold change (relative to vehicle control = 1, protein TB927.10.13780 GLYCOGEN SYNTHASE KINASE 3) of 0.99, a fold change (relative to vehicle control = 1, protein TB927.10.14980 INTR[…] PROTEIN IFT52, PUTATIVE) of 0.96 and a fold change (relative to vehicle control = 1, protein TB927.1.2330 BETA TUBULIN) of 0.9. It also gave a fold change (relative to vehicle control = 1, protein TB927.1.2400 ALPHA TUBULIN) of 0.89, a fold change (relative to vehicle control = 1, protein TB927.10.3280 60S RIBOSOMAL PROTEINS L38, PUTATIVE) of 0.97 and a fold change (relative to vehicle control = 1, protein TB927.10.4180 TFIIF-[…] PHOSPHATASE, PUTATIVE) of 0.98. For the same compound, the fold change (relative to vehicle control = 1, protein TB927.10.5330 40S RIBOSOMAL PROTEIN S18, PUTATIVE) was 1.1, the fold change (relative to vehicle control = 1, protein TB927.10.5500 HY[…], CONSERVED) was 0.92 and the fold change (relative to vehicle control = 1, protein TB927.10.6670 DYNEIN LIGHT CHAIN, PUTATIVE) was 0.95. It also gave a fold change (relative to vehicle control = 1, protein TB927.2.2440 […]-ATPASE SUBUNIT 6) of 0.96, a fold change (relative to vehicle control = 1, protein TB927.2.2510 HY[…], CONSERVED) of 0.96 and a fold change (relative to vehicle control = 1, protein TB927.2.3800 MRNA […], PUTATIVE) of 0.87. The fold change (relative to vehicle control = 1, protein TB927.3.1120 GTP-BINDING NUCLEAR PROTEIN RTB2, PUTATIVE) was 0.91, the fold change (relative to vehicle control = 1, protein TB927.3.3490 HIGH MOBILITY GROUP PROTEIN, PUTATIVE) was 0.88 and the fold change (relative to vehicle control = 1, protein TB927.4.4650 […] SYNTHASE, PUTATIVE) was 0.79. The fold change (relative to vehicle control = 1, protein TB927.4.5310 SERINE/THREONINE-PROTEIN KINASE A, PUTATIVE) was 0.99, the fold change (relative to vehicle control = 1, protein TB927.5.1930 HY[…], CONSERVED) was 0.78 and the fold change (relative to vehicle control = 1, protein TB927.6.2200 HY[…], CONSERVED) was 0.92. For the same compound, the fold change (relative to vehicle control = 1, protein TB927.6.4140 PAR[…] COMPONENT, PUTATIVE) was 0.9, the fold change (relative to vehicle control = 1, protein TB927.7.2500 […] SUBUNIT 1) was 0.95 and the fold change (relative to vehicle control = 1, protein TB927.7.2700 NADH-CYTOCHROME B5 REDUCTASE, PUTATIVE) was 0.76. The fold change (relative to vehicle control = 1, protein TB927.7.4480 ADENOSINE 5'-[…], PUTATIVE) was 0.83, the fold change (relative to vehicle control = 1, protein TB927.7.4500 HY[…], CONSERVED) was 0.97 and the fold change (relative to vehicle control = 1, protein TB927.8.1510 ATP-DEPENDENT DEAD/H RNA HELICASE, PUTATIVE) was 0.94. The fold change (vs vehicle control, protein TB09.160.3710 PRO[…] NUCLEAR ANTIGEN (PCNA), PUTATIVE) was 0.96, the fold change (vs vehicle control, protein TB11.01.4370 HY[…], CONSERVED) was 0.98 and the fold change (vs vehicle control, protein TB427TMP.01.5690 DRBD4) was 0.94. For the same compound, the fold change (vs vehicle control, protein TB427.01.1670 HY[…], CONSERVED) was 0.91, the fold change (vs vehicle control, protein TB427.04.760 GAMMA-ADAPTIN 1, PUTATIVE) was 0.93 and the fold change (vs vehicle control, protein TB427.07.1420 HY[…], CONSERVED) was 0.92. The fold change (vs vehicle control, protein TB427.10.11760 PUMILIO/PUF RNA BINDING PROTEIN 6) was 0.96, the fold change (vs vehicle control, protein TB427.10.2290 CHAPERONE PROTEIN DNAJ, PUTATIVE) was 0.8 and the fold change (vs vehicle control, protein TB927.5.1630 HY[…], CONSERVED) was 0.91.
